The text below walks through data of article PMC10218109, “Old Drug, New Delivery Strategy: MMAE Repackaged” (International Journal of Molecular Sciences, 2023).

What is called IC50 is the concentration that inhibits the measured activity by half. Low readings indicate inhibition by little substance, high ones a need for much substance.

Test [1] has as its target T1, prostate specific membrane antigen (PSMA) (Homo sapiens, UniProt Q04609).
T1 construct: gene FOLH1
The test is described as follows: competitive radioligand binding on PSMA-positive LNCaP cells vs […]Ga-PSMA-10. The class given is cell-based.

Test [2] concerns the target T1, prostate specific membrane antigen (PSMA). The test is described as follows: competitive radioligand binding on PSMA-positive LNCaP cells (reference ligand). The class given is cell-based.

T1 sequence (Q04609 whole entry): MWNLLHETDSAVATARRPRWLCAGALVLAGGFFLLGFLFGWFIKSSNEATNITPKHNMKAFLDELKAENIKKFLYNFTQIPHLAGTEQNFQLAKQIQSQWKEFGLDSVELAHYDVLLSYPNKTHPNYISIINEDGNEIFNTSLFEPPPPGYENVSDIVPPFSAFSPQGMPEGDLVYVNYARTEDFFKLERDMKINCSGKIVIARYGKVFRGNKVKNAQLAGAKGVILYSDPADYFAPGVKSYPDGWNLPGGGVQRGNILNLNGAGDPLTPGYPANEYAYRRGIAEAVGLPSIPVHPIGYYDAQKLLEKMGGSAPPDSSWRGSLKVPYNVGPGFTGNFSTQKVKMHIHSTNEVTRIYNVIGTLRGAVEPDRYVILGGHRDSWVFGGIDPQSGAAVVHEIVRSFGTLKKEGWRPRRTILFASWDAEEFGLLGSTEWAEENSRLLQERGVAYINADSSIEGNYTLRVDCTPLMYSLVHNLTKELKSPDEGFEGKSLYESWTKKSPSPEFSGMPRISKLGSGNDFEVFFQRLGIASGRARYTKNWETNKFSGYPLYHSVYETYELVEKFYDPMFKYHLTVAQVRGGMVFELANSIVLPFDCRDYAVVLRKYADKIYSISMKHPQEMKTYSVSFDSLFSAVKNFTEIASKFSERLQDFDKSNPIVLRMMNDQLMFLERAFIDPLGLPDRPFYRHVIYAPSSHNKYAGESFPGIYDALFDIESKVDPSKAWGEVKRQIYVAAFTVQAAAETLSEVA

Consider `NC[C@H]1CC[C@H](C(=O)N[C@@H](Cc2ccc3ccccc3c2)C(=O)NCCCC[C@H](NC(=O)N[C@@H](CCC(=O)O)C(=O)O)C(=O)O)CC1` [KuE-617], for which the IC50 in test [1] was found to be 21.5 ± 1.9 nM.

For the compound `O=C(O)CCc1ccc(O)c(CN(CCN(CC(=O)O)Cc2cc(CCC(=O)NCCCCCC(=O)NCCCC[C@H](NC(=O)N[C@@H](CCC(=O)O)C(=O)O)C(=O)O)ccc2O)CC(=O)O)c1` [PSMA-11], the IC50 in test [2] was 17.4 ± 1.6 nM.

`O=C(O)CC[C@H](NC(=O)N[C@@H](CCCCNC(=O)[C@H](Cc1ccc2ccccc2c1)NC(=O)[C@H]1CC[C@H](CNC(=O)CN2CCN(CC(=O)O)CCN(CC(=O)O)CCN(CC(=O)O)CC2)CC1)C(=O)O)C(=O)O` [PSMA-617]: the IC50 in test [2] worked out at 15.1 ± 3.8 nM.
